This is an account of results in patent US9822131B2, “Certain chemical entities, compositions and methods” (Intellikine LLC, priority 2008, dated 2017).

One assay concerns basophilic granulocytes. Put plainly: Basotest assay. The format is cell-based. Particulars: heparinized whole blood, dust mite or grass extract allergen. On the procedure:
The baseotest assay is performed using Orpegen Pharma Basotest reagent kit. Heparinized whole blood is pre-incubated with test compound or solvent at 37 C for 20 min. Blood is then incubated with assay kit stimulation buffer (to prime cells for response) followed by allergen (dust mite extract or grass extract) for 20 min. The degranulation process is stopped by incubating the blood samples on ice. The cells are then labeled with anti-IgE-PE to detect basophilic granulocytes, and anti-gp53-FITC to detect gp53 (a glycoprotein expressed on activated basophils). After staining red blood cells are lysed by addition of Lysing Solution. Cells are washed, and analyzed by flow cytometry.

In another assay the test system is Balb/c splenic B cells. The assay is described as follows: B cell activation and proliferation assay (Alamar Blue). The class given is cell-based. Particulars: Mus musculus, read-out: B cell proliferation EC50 (nM). Background: Resazurin is reduced to fluorescent resorufin, in cell work by metabolically active cells.

Procedure for Balb/c splenic B cells: The assay is performed in a 96 well microtiter plate using Alamar Blue reduction. Balb/c splenic B cells are purified over a Ficoll-Paque™ PLUS gradient followed by magnetic cell separation using a MACS B cell Isolation Kit (Miletenyi). Cells are plated in 90 ul at 50,000 cells/well in B Cell Media (RPMI+10% FBS+Penn/Strep+50 uM bME+5 mM HEPES). A compound disclosed herein is diluted in B Cell Media and added in a 10 ul volume. Plates are incubated for 30 min at 37 C and 5% CO2 (0.2% DMSO final concentration). A 50 ul B cell stimulation cocktail is then added containing either 10 ug/ml LPS or 5 ug/ml F(ab′)2 Donkey anti-mouse IgM plus 2 ng/ml recombinant mouse IL4 in B Cell Media. […] A volume of 15 uL of Alamar Blue reagent is added to each well and plates are incubated for 5 hours at 37 C and 5% CO2. Alamar Blue fluoresce is read at 560Ex/590Em, and IC50 or EC50 values are calculated using GraphPad Prism 5.

In the case of `CC(=O)Nc1nc2ccc(-c3nn(Cc4cc5cccc(C)c5c(=O)n4-c4ccccc4C)c4ncnc(N)c34)cc2s1` [Compound 53], the “inhibition of allergen induced activation of basophilic granulocytes” value in the assay on basophilic granulocytes is given as “sub micromolar range”. Moreover, the EC50 in the assay on Balb/c splenic B cells was below 100 nM.
